# Measurements published in the NIST ThermoML archive (doi:10.1016/j.jct.2017.11.003).
# ± gives the expanded uncertainty stated by the source.
# Test: xn = mol fraction of the nth substance listed
# Conditions: 293.15 K; 100 kPa; Liquid; Frequency=2 MHz; Linear variable-path acoustic interferometer; x1 = 1
row,SMILES,speed of sound [m/s]
1,"ClCCCl [1,2-dichloroethane] + CCCCCCCCCO",1212.5 ± 3.9

# Same assay, conditions: 293.15 K; 100 kPa; Liquid; Frequency=2 MHz; Linear variable-path acoustic interferometer; x2 = 0
row,SMILES,speed of sound [m/s]
1,CCCCCCCCCO [nonan-1-ol] + Cc1ccc(Cl)cc1,1380.5 ± 4
2,CCCCCCCCCO [nonan-1-ol] + Cc1cccc(Cl)c1,1380.5 ± 4
3,CCCCCCCCCO [nonan-1-ol] + Cc1ccccc1Cl,1380.5 ± 4

# Same assay, conditions: 293.15 K; 100 kPa; Liquid; Vibrating tube method; x1 = 1
row,SMILES,mass density [kg/m3]
1,"ClCCCl [1,2-dichloroethane] + CCCCCCCCCO",1253 ± 4

# Same assay, conditions: 293.15 K; 100 kPa; Liquid; Vibrating tube method; x2 = 0
row,SMILES,mass density [kg/m3]
1,CCCCCCCCCO [nonan-1-ol] + Cc1ccc(Cl)cc1,828 ± 4
2,CCCCCCCCCO [nonan-1-ol] + Cc1cccc(Cl)c1,828 ± 4
3,CCCCCCCCCO [nonan-1-ol] + Cc1ccccc1Cl,828 ± 4

# Same assay, conditions: 298.15 K; 100 kPa; Liquid; Frequency=2 MHz; Linear variable-path acoustic interferometer; x1 = 1
row,SMILES,speed of sound [m/s]
1,"ClCCCl [1,2-dichloroethane] + CCCCCCCCCO",1194.2 ± 3.9

# Same assay, conditions: 298.15 K; 100 kPa; Liquid; Frequency=2 MHz; Linear variable-path acoustic interferometer; x2 = 0
row,SMILES,speed of sound [m/s]
1,CCCCCCCCCO [nonan-1-ol] + Cc1ccc(Cl)cc1,1364.7 ± 4
2,CCCCCCCCCO [nonan-1-ol] + Cc1cccc(Cl)c1,1364.7 ± 4
3,CCCCCCCCCO [nonan-1-ol] + Cc1ccccc1Cl,1364.7 ± 4

# Same assay, conditions: 298.15 K; 100 kPa; Liquid; Vibrating tube method; x1 = 1
row,SMILES,mass density [kg/m3]
1,"ClCCCl [1,2-dichloroethane] + CCCCCCCCCO",1246 ± 4

# Same assay, conditions: 298.15 K; 100 kPa; Liquid; Vibrating tube method; x2 = 0
row,SMILES,mass density [kg/m3]
1,CCCCCCCCCO [nonan-1-ol] + Cc1ccc(Cl)cc1,824 ± 4
2,CCCCCCCCCO [nonan-1-ol] + Cc1cccc(Cl)c1,824 ± 4
3,CCCCCCCCCO [nonan-1-ol] + Cc1ccccc1Cl,824 ± 4

# Same assay, conditions: 303.15 K; 100 kPa; Liquid; Frequency=2 MHz; Linear variable-path acoustic interferometer; x1 = 1
row,SMILES,speed of sound [m/s]
1,"ClCCCl [1,2-dichloroethane] + CCCCCCCCCO",1174.1 ± 3.9

# Same assay, conditions: 303.15 K; 100 kPa; Liquid; Frequency=2 MHz; Linear variable-path acoustic interferometer; x2 = 0
row,SMILES,speed of sound [m/s]
1,CCCCCCCCCO [nonan-1-ol] + Cc1ccc(Cl)cc1,1348.1 ± 4
2,CCCCCCCCCO [nonan-1-ol] + Cc1cccc(Cl)c1,1348.1 ± 4
3,CCCCCCCCCO [nonan-1-ol] + Cc1ccccc1Cl,1348.1 ± 4

# Same assay, conditions: 303.15 K; 100 kPa; Liquid; Vibrating tube method; x1 = 1
row,SMILES,mass density [kg/m3]
1,"ClCCCl [1,2-dichloroethane] + CCCCCCCCCO",1238 ± 4

# Same assay, conditions: 303.15 K; 100 kPa; Liquid; Vibrating tube method; x2 = 0
row,SMILES,mass density [kg/m3]
1,CCCCCCCCCO [nonan-1-ol] + Cc1ccc(Cl)cc1,821 ± 4
2,CCCCCCCCCO [nonan-1-ol] + Cc1cccc(Cl)c1,821 ± 4
3,CCCCCCCCCO [nonan-1-ol] + Cc1ccccc1Cl,821 ± 4

# Same assay, conditions: 308.15 K; 100 kPa; Liquid; Frequency=2 MHz; Linear variable-path acoustic interferometer; x1 = 1
row,SMILES,speed of sound [m/s]
1,"ClCCCl [1,2-dichloroethane] + CCCCCCCCCO",1155.6 ± 3.9

# Same assay, conditions: 308.15 K; 100 kPa; Liquid; Frequency=2 MHz; Linear variable-path acoustic interferometer; x2 = 0
row,SMILES,speed of sound [m/s]
1,CCCCCCCCCO [nonan-1-ol] + Cc1ccc(Cl)cc1,1330.5 ± 4
2,CCCCCCCCCO [nonan-1-ol] + Cc1cccc(Cl)c1,1330.5 ± 4
3,CCCCCCCCCO [nonan-1-ol] + Cc1ccccc1Cl,1330.5 ± 4

# Same assay, conditions: 308.15 K; 100 kPa; Liquid; Vibrating tube method; x1 = 1
row,SMILES,mass density [kg/m3]
1,"ClCCCl [1,2-dichloroethane] + CCCCCCCCCO",1231 ± 4

# Same assay, conditions: 308.15 K; 100 kPa; Liquid; Vibrating tube method; x2 = 0
row,SMILES,mass density [kg/m3]
1,CCCCCCCCCO [nonan-1-ol] + Cc1ccc(Cl)cc1,818 ± 4
2,CCCCCCCCCO [nonan-1-ol] + Cc1cccc(Cl)c1,818 ± 4
3,CCCCCCCCCO [nonan-1-ol] + Cc1ccccc1Cl,818 ± 4

# Test: not given
# Conditions: 293.15 K; 100 kPa; Liquid; Frequency=2 MHz; Linear variable-path acoustic interferometer
row,SMILES,speed of sound [m/s]
1,"ClCCCl [1,2-dichloroethane]",1212.5 ± 3.9
2,Cc1ccccc1Cl [2-chlorotoluene],1317 ± 4
3,Cc1cccc(Cl)c1 [3-chlorotoluene],1313.8 ± 4
4,Cc1ccc(Cl)cc1 [4-chlorotoluene],1306.4 ± 4
5,CCCCCCCCCO [nonan-1-ol],1380.5 ± 4

# Same assay, conditions: 293.15 K; 100 kPa; Liquid; Vibrating tube method
row,SMILES,mass density [kg/m3]
1,"ClCCCl [1,2-dichloroethane]",1253 ± 4
2,Cc1ccccc1Cl [2-chlorotoluene],1082 ± 4
3,Cc1cccc(Cl)c1 [3-chlorotoluene],1072 ± 4
4,Cc1ccc(Cl)cc1 [4-chlorotoluene],1069 ± 4
5,CCCCCCCCCO [nonan-1-ol],828 ± 4

# Same assay, conditions: 298.15 K; 100 kPa; Liquid; Frequency=2 MHz; Linear variable-path acoustic interferometer
row,SMILES,speed of sound [m/s]
1,"ClCCCl [1,2-dichloroethane]",1194.2 ± 3.9
2,Cc1ccccc1Cl [2-chlorotoluene],1299.7 ± 4
3,Cc1cccc(Cl)c1 [3-chlorotoluene],1296.5 ± 4
4,Cc1ccc(Cl)cc1 [4-chlorotoluene],1288.2 ± 4
5,CCCCCCCCCO [nonan-1-ol],1364.7 ± 4

# Same assay, conditions: 298.15 K; 100 kPa; Liquid; Vibrating tube method
row,SMILES,mass density [kg/m3]
1,"ClCCCl [1,2-dichloroethane]",1246 ± 4
2,Cc1ccccc1Cl [2-chlorotoluene],1077 ± 4
3,Cc1cccc(Cl)c1 [3-chlorotoluene],1067 ± 4
4,Cc1ccc(Cl)cc1 [4-chlorotoluene],1065 ± 4
5,CCCCCCCCCO [nonan-1-ol],824 ± 4

# Same assay, conditions: 303.15 K; 100 kPa; Liquid; Frequency=2 MHz; Linear variable-path acoustic interferometer
row,SMILES,speed of sound [m/s]
1,"ClCCCl [1,2-dichloroethane]",1174.1 ± 3.9
2,Cc1ccccc1Cl [2-chlorotoluene],1283.9 ± 4
3,Cc1cccc(Cl)c1 [3-chlorotoluene],1279.5 ± 4
4,Cc1ccc(Cl)cc1 [4-chlorotoluene],1270 ± 3.9
5,CCCCCCCCCO [nonan-1-ol],1348.1 ± 4

# Same assay, conditions: 303.15 K; 100 kPa; Liquid; Vibrating tube method
row,SMILES,mass density [kg/m3]
1,"ClCCCl [1,2-dichloroethane]",1238 ± 4
2,Cc1ccccc1Cl [2-chlorotoluene],1073 ± 4
3,Cc1cccc(Cl)c1 [3-chlorotoluene],1063 ± 4
4,Cc1ccc(Cl)cc1 [4-chlorotoluene],1060 ± 4
5,CCCCCCCCCO [nonan-1-ol],821 ± 4

# Same assay, conditions: 308.15 K; 100 kPa; Liquid; Frequency=2 MHz; Linear variable-path acoustic interferometer
row,SMILES,speed of sound [m/s]
1,"ClCCCl [1,2-dichloroethane]",1155.6 ± 3.9
2,Cc1ccccc1Cl [2-chlorotoluene],1265.8 ± 4
3,Cc1cccc(Cl)c1 [3-chlorotoluene],1261.2 ± 4
4,Cc1ccc(Cl)cc1 [4-chlorotoluene],1252.1 ± 3.9
5,CCCCCCCCCO [nonan-1-ol],1330.5 ± 4

# Same assay, conditions: 308.15 K; 100 kPa; Liquid; Vibrating tube method
row,SMILES,mass density [kg/m3]
1,"ClCCCl [1,2-dichloroethane]",1231 ± 4
2,Cc1ccccc1Cl [2-chlorotoluene],1068 ± 4
3,Cc1cccc(Cl)c1 [3-chlorotoluene],1058 ± 4
4,Cc1ccc(Cl)cc1 [4-chlorotoluene],1054 ± 4
5,CCCCCCCCCO [nonan-1-ol],818 ± 4
